In patent EP3454861B1, “BENZOXAZINE OR QUINAZOLINE DERIVATIVES FOR USE IN THE TREATMENT OF ALZHEIMER'S DISEASE” (Biocodex, priority 2016, dated 2017):

Tests used:
Assay type in all cases: in vivo, souris
[1] = tested on: modèle murin de maladie d'Alzheimer par administration du peptide amyloïde β25-35; experiment: Passive avoidance test (long-term contextual memory), retention session, Aβ25-35 mouse model; conditions: Aβ25-35 9 nmol ICV, day 10
Text: (§1) Le 1^er jour : une version « mélangée » (scrambled) du peptide amyloïde β25-35 (Sc.Aβ, témoin négatif) ou le peptide amyloïde β25-35 (Aβ25-35) est injecté par voie intra-cérébroventriculaire (ICV) (le peptide Aβ25-35 provoque l'intoxication cellulaire). Entre le 1^er jour et le 10^ème jour, les traitements sont administrés une fois par jour par voie intrapéritonéale (IP).

[2] = tested on: Bax; experiment: ELISA of Bax in mouse hippocampus after Aβ25-35
Text: as §1
(§2) A la fin de la session de rétention d'évitement passif, le 10^ème jour, les animaux sont sacrifiés par décapitation. L'hippocampe et le cortex frontal sont disséqués et congelés dans l'azote liquide. L'hippocampe est utilisé pour mesurer le taux de peroxydation lipidique à l'aide d'une méthode colorimétrique et pour évaluer les taux de 4 marqueurs biochimiques par des tests ELISA. Le cortex est conservé à -80°C en attente d'analyses supplémentaires. Les plasmas sont également conservés en attente d'analyses supplémentaires. Les échantillons biologiques sont jetés après 3 mois.
(§3) Pour tous les dosages, les […] sont homogénéisés, après décongélation, dans un tampon Tris (Tris 50 mM, 150 mM NaCl, pH 7,5) et traités par ultrasons pendant 20 secondes. […] Pour chaque dosage, l'absorbance est lue à 450 nm et la concentration est calculée en utilisant la courbe standard. Les résultats sont exprimés en pg ou ng de marqueur par mg de tissu et en pourcentage de solution Sc.Aβ + véhicule. 6 échantillons par groupe (n = 36 kits ELISA) sont dosés en double.

[3] = tested on: Caspase-3; experiment: ELISA of Caspase-3 in mouse hippocampus after Aβ25-35
Text: as §1, §2, §3

[4] = Aβ25-35/Etifoxine 12.5 mg/kg IP

SMILES: CCNC1=Nc2ccc(Cl)cc2C(C)(c2ccccc2)O1 (stereo not drawn) [Etifoxine, chlorhydratede 6-chloro-2-éthylamino-4-méthyl-4-phényl-4H-[3,1]benzoxazine]
- temps de fuite lors de la session de rétention, Moyenne ([1]; Etifoxine 25 mg/kg IP once daily): 22,4 ± 2,4%
- temps de fuite lors de la session de rétention, Moyenne ([1]; Etifoxine 50 mg/kg IP once daily): 21,6 ± 3,0%
- temps de latence lors la session de rétention, Moyenne ([1]; Etifoxine 12,5 mg/kg IP once daily): 208,1 ± 17,4%
- Taux de protéine Bax [2, 4]: 180,1 ± 7,4 % de Sc.Aβ/V
- Taux de protéine Bax ([2]; Aβ25-35/Etifoxine 25 mg/kg IP): 132,6± 7,5 % de Sc.Aβ/V
- Taux de protéine Bax ([2]; Aβ25-35/Etifoxine 50 mg/kg IP): 99,9 ± 4,2 % de Sc.Aβ/V
- Expression CASP-3 [3, 4]: 136,8 ± 7,2 % de Sc.Aβ/V
- Expression CASP-3 ([3]; Aβ25-35/Etifoxine 25 mg/kg IP): 127,3 ± 10,8 % de Sc.Aβ/V
- Expression CASP-3 ([3]; Aβ25-35/Etifoxine 50 mg/kg IP): 109,9 ± 5,6 % de Sc.Aβ/V
